Patent US9803021B2 (The Regents of the University of California, priority 2012, dated 2017)
“Also recorded” adds a separate entry of the source.

What was measured:
ANBL-6 [1] = assay: Senescence induced β-gal activity at pH 6 (C12FDG, flow cytometry); type: cell-based, human; details: ANBL-6, 1 nM, 3 days (data not shown)
Protocol: (§1) Senescence induced β-galactosidase (β-gal) activity was detected as described previously (Debacq-Chainiaux et al. (2009) Nature Protocols, 4: 1798-1806). […] To induce lysosomal alkalinization, cells were incubated in 100 nM bafilomycin A1 (Sigma) for 1 h. Then cells were incubated for 30 min with the β-gal substrate dodecanoylaminofluorescein di-β-D-galactopyranoside (C12FDG; Invitrogen), which becomes fluorescent after cleavage by β-gal. After washing twice with cold PBS, cells were resuspended in cold PBS containing 1 mM phenylethyl thiogalactoside (PETG), a β-gal inhibitor, and analyzed by flow cytometry for C12-fluorescein.
(§2) Intracellular β-galactosidase (β-gal) activity was measured as an indicator for replicative senescence. […] After treatment, cells were incubated with 100 nM bafilomycin A1 (Sigma) for 1 hour to induce lysosomal alkalinization. Then cells were incubated for 30 minutes with the 33 μM of β-gal substrate dodecanoylaminofluorescein di-β-D-galactopyranoside (C12FDG; Invitrogen), which becomes fluorescent after cleavage to C12-fluorescein. After washing twice with cold PBS, cells were resuspended in cold PBS containing 1 mM phenylethyl thiogalactoside (PETG), a β-gal inhibitor, and analyzed by flow cytometry for C12-fluorescein.

NCI-H929 = assay: as above; type: cell-based, human; details: 1 nM, 3 days, listed as anti-CD138-IFNα2
Protocol: as §1, §2

OCI-My5 [2] = assay: as above; type: cell-based, human
Protocol: as §1, §2

MM1-144 [3] = assay: as above; type: cell-based, human; details: MM1-144, 1 nM, 3 days
Protocol: as §1, §2

U266 [4] = assay: as above; type: cell-based, human; details: U266, 1 nM, 3 days
Protocol: as §1, §2

[5] = test system: primary myeloma cells from patients; assay: Treatment of primary myeloma cells from patients (trypan blue / MTT); type: cell-based, human
Protocol: Trypan blue and MTT assays were used to determine the number of viable cells. The percentage of viable recovered cells was calculated based upon the number of viable cells recovered from DMSO-treated control cells, which was arbitrarily designated as 100%.
Percent viable cell recovery was determined by trypan blue staining, with untreated control cells designated as 100%.

OPM-2 = assay: MTS assay (cell viability / metabolic activity); type: cell-based, human
Protocol: (§3) Percent cell viability was determined using MTS solution (Promega, Madison, Wis.) by measuring absorbance at 490 nm using a Synergy HT Multi-Detection Microplate Reader (BioTek Instruments, Inc., Winooski, Vt.) with untreated cells being 100%. GraphPad Prism (GraphPad Software Inc., La Jolla, Calif.) was used to analyze data by non-linear regression with the log (inhibitor) vs. the response with a variable slope with the IC50 calculated. Data are expressed as a percentage of maximum metabolic activity. The experiments were performed in triplicate.
To determine if the HMCLs were sensitive to treatment with IFNα fusion protein, HMCLs were incubated with varying concentrations of anti-CD138-IFNα, and cell viability was assessed. Anti-CD138-IFNα was used to target IFNα to the MM cell lines while anti-CD20-IFNα was used as an untargeted control. […] The MM cell lines differed in their response to treatment with the fusion proteins.

Delta 47 = assay: MTS assay (cell viability / metabolic activity); type: cell-based, human
Protocol: as §3
(§4) To determine if the HMCLs were sensitive to treatment with IFNα fusion protein, HMCLs were incubated with varying concentrations of anti-CD138-IFNα, and cell viability was assessed. Anti-CD138-IFNα was used to target IFNα to the MM cell lines while anti-CD20-IFNα was used as an untargeted control. After 3 days of treatment, cell viability was measured by MTS activity. The MM cell lines differed in their response to treatment with the fusion proteins.

8226/Dox40 = assay: MTS assay (cell viability / metabolic activity); type: cell-based, human; details: 8226/Dox40, 3 days
Protocol: as §3, §4

OPM-1 = assay: MTS assay (cell viability / metabolic activity); type: cell-based, human
Protocol: as §3, §4

S6B45 = assay: MTS assay (cell viability / metabolic activity); type: cell-based, human; details: S6B45, 3 days
Protocol: as §3, §4

XG-2 = assay: MTS assay (cell viability / metabolic activity); type: cell-based, human; details: XG-2, 3 days
Protocol: as §3, §4

XG-1 = assay: MTS assay (cell viability / metabolic activity); type: cell-based, human; details: XG-1, 3 days
Protocol: as §3, §4

U266 tumors = assay: U266 xenograft model in NSG mice; details: U266 s.c.
Protocol: For U266 tumors, NOD scid IL-2 receptor gamma chain knock out (NSG) mice were injected subcutaneously with 1×10^7 U226 cells and treated on days 14, 16 and 18 with 100 μg of the indicated proteins. […] Survival was monitored as well as the size of the tumors.
For U266 tumors, experiments were carried out as described above except that NOD-scid IL2rγ^null (NSG) mice were used.

Daudi cells = assay: MTS cell viability assay; type: cell-based, human; details: 72 h / 3 day incubation
Protocol: as §3
as §3, with “Metabolic activity” for “Percent cell viability”, “(Promega)” for “(Promega, Madison, Wis.)”, “Instruments Inc.)” for “Instruments, Inc., Winooski, Vt.)”, “Inc.)” for “Inc., La Jolla, Calif.)”, “versus” for “vs.”, “slope.” for “slope with the IC50 calculated.”

ANBL-6 [6] = assay: MTS assay (cell viability / metabolic activity); type: cell-based, human; details: ANBL-6, 3 days or 7 days
Protocol: as §3
as §3, with “Metabolic activity” for “Percent cell viability”, “(Promega)” for “(Promega, Madison, Wis.)”, “Instruments Inc.)” for “Instruments, Inc., Winooski, Vt.)”, “Inc.)” for “Inc., La Jolla, Calif.)”, “versus” for “vs.”, “slope.” for “slope with the IC50 calculated.”

8226/S = assay: MTS assay (cell viability / metabolic activity); type: cell-based, human; details: 8226/S (RPMI 8226), 3 days or 4 days
Protocol: as §3
as §3, with “Metabolic activity” for “Percent cell viability”, “(Promega)” for “(Promega, Madison, Wis.)”, “Instruments Inc.)” for “Instruments, Inc., Winooski, Vt.)”, “Inc.)” for “Inc., La Jolla, Calif.)”, “versus” for “vs.”, “slope.” for “slope with the IC50 calculated.”

OCI-My5 [7] = assay: MTS assay (cell viability / metabolic activity); type: cell-based, human; details: OCI-My5, 3 days
Protocol: as §3
as §3, with “Metabolic activity” for “Percent cell viability”, “(Promega)” for “(Promega, Madison, Wis.)”, “Instruments Inc.)” for “Instruments, Inc., Winooski, Vt.)”, “Inc.)” for “Inc., La Jolla, Calif.)”, “versus” for “vs.”, “slope.” for “slope with the IC50 calculated.”

MM1-144 [8] = assay: MTS assay (cell viability / metabolic activity); type: cell-based, human; details: MM144 (MM1-144), 3 days
Protocol: as §3
as §3, with “Metabolic activity” for “Percent cell viability”, “(Promega)” for “(Promega, Madison, Wis.)”, “Instruments Inc.)” for “Instruments, Inc., Winooski, Vt.)”, “Inc.)” for “Inc., La Jolla, Calif.)”, “versus” for “vs.”, “slope.” for “slope with the IC50 calculated.”

U266 [9] = assay: MTS assay (cell viability / metabolic activity); type: cell-based, human; details: U266, 3 days
Protocol: as §3
as §3, with “Metabolic activity” for “Percent cell viability”, “(Promega)” for “(Promega, Madison, Wis.)”, “Instruments Inc.)” for “Instruments, Inc., Winooski, Vt.)”, “Inc.)” for “Inc., La Jolla, Calif.)”, “versus” for “vs.”, “slope.” for “slope with the IC50 calculated.”

OCI-My 5 cells = assay: Cell proliferation assay (3[H]-thymidine incorporation); type: cell-based, human; details: OCI-My 5, 0.3 pM-25 nM, 3 days
Protocol: The proliferative status of the cells was determined by measuring ^3[H]-thymidine incorporation.

Substance: anti-CD138-IFNα: Fusion protein: murine B-B4 anti-CD138 variable regions, human IgG1κ constant regions, human IFNα2 fused to the antibody C-terminus via SGGGGS linker
- β-gal activity at pH 6 (senescence), result in words (ANBL-6 [1]): no increases
- β-gal activity at pH 6 (senescence), result in words (NCI-H929): increases in β-gal activity; also recorded: greater effect than with IFNα2 alone
- β-gal activity at pH 6 (senescence), result in words (OCI-My5 [2]; OCI-My5, 1 nM, 3 days (also 4, 6, 7 days)): little or no increase in β-gal activity
- Mode of Action of anti-CD138-IFNα fusion (OCI-My5 [2]; OCI-My 5, footnote †): senescence†
- β-gal activity at pH 6 (senescence), result in words (MM1-144 [3]): increases in β-gal activity
- β-gal activity at pH 6 (senescence), result in words (U266 [4]): no increase under any conditions
- viability of primary myeloma cells, result in words ([5]; 25 nM, 72 h): little effect
- viability of primary myeloma cells, result in words ([5]; 100 nM, 72 hours): significantly reduce cell viability
- cell viability (MTS assay), result in words (OPM-2; OPM-2, 3 days): little or no effect
- cell viability (MTS assay), result in words (OPM-2; OPM-2, treatment increased to 4 days (data not shown)): decrease in viability
- cell viability (MTS assay), result in words (Delta 47; Delta 47, 3 days): little or no effect
- cell viability (MTS assay), result in words (Delta 47; Delta 47, treatment increased to 4 days (data not shown)): decrease in viability
- cell viability (MTS assay), result in words (8226/Dox40): intermediate effect
- cell viability (MTS assay), result in words (8226/Dox40; listed as Anti-CD138-IFNα2): some effect was observed only at high concentrations
- cell viability (MTS assay), result in words (OPM-1; OPM-1, 3 days): little or no effect
- cell viability (MTS assay), result in words (OPM-1; OPM-1, treatment increased to 4 days (data not shown)): decrease in viability
- cell viability (MTS assay), result in words (S6B45): intermediate effect
- cell viability (MTS assay), result in words (S6B45; listed as Anti-CD138-IFNα2): some effect was observed only at high concentrations
- cell viability (MTS assay), result in words (XG-2): little or no effect
- cell viability (MTS assay), result in words (XG-1): little or no effect
- survival / protection against tumor growth, result in words (U266 tumors; 100 μg on days 14, 16, 18): much more effective than untargeted anti-DNS-IFNα
- survival / protection against tumor growth, result in words (U266 tumors; 100 μg on days 14, 16, 18, listed as anti-CD138-IFNα2): highest levels of protection
- cell viability (MTS assay), result in words (Daudi cells): just as effective as recombinant IFNα
- cell viability / growth inhibition (MTS assay), result in words (ANBL-6 [6]): more effective than untargeted anti-CD20-IFNα; also recorded: more effective at decreasing cell viability than IFNα alone
- cell viability / growth inhibition (MTS assay), result in words (ANBL-6 [6]; listed as Anti-CD138-IFNα): more effective than anti-CD138-mutIFNα
- cell viability / growth inhibition (MTS assay), result in words (ANBL-6 [6]; listed as Anti-CD138-IFNα2): more effective than recombinant IFNα2
- cell viability / growth inhibition (MTS assay), result in words (8226/S): intermediate effect; also recorded: more effective at decreasing cell viability than IFNα alone
- cell viability / growth inhibition (MTS assay), result in words (8226/S; listed as Anti-CD138-IFNα2): some effect was observed only at high concentrations
- cell viability / growth inhibition (MTS assay), result in words (OCI-My5 [7]): more effective than untargeted anti-CD20-IFNα; also recorded: more effective at decreasing cell viability than IFNα alone
- cell viability / growth inhibition (MTS assay), result in words (OCI-My5 [7]; listed as Anti-CD138-IFNα2): more effective than recombinant IFNα2
- cell viability / growth inhibition (MTS assay), result in words (MM1-144 [8]): more effective than untargeted anti-CD20-IFNα; also recorded: more effective at decreasing cell viability than IFNα alone
- cell viability / growth inhibition (MTS assay), result in words (MM1-144 [8]; listed as Anti-CD138-IFNα2): more effective than recombinant IFNα2
- cell viability / growth inhibition (MTS assay), result in words (U266 [9]): more effective than untargeted anti-CD20-IFNα; also recorded: more effective at decreasing cell viability than IFNα alone
- proliferation (3[H]-thymidine incorporation), result in words (OCI-My 5 cells): greater effect than IFNα alone
